Results reported in paper PMC6630832, “3-Vinylazetidin-2-Ones: Synthesis, Antiproliferative and Tubulin Destabilizing Activity in MCF-7 and MDA-MB-231 Breast Cancer Cells” (Pharmaceuticals, 2019).
Read-outs that look alike come from different tables or passages of the source.

Assays:
Hs578Ts(i)8 cells = assay: Antiproliferative activity in invasive Hs578Ts(i)8 cells; assay type: cell-based
MCF-7 cells = assay: Cell cycle analysis (PI flow cytometry); assay type: cell-based, human; details: for apoptotic cells (sub-G0G1): 72 h
Experimental: MCF-7 cells (adherent and detached) were treated with the appropriate concentration of compound 7s and incubated for the designated time. Cells were collected, trypsinised and centrifuged at 800× g for 15 min. Cells were washed twice with ice-cold PBS and fixed in ice-cold 70% ethanol overnight at −20 °C. Fixed cells were centrifuged at 800× g for 15 min and stained with 50 μg/mL of PI, containing 50 μg/mL of DNase-free RNase A, at 37 °C for 30 min.

[1] = system: Hs578T breast cancer cell line; assay: Antiproliferative activity in Hs578T cells; assay type: cell-based; details: Homo sapiens, Hs-578T
[2] = system: microtubule network of MCF-7 cells; assay: Immunofluorescence microscopy; assay type: cell-based, human; details: 100 nM, 16 h
Experimental: Confocal microscopy was used to study the effects of drug treatment on MCF-7 cytoskeleton. For immunofluorescence, MCF-7 cells were seeded at 1 × 10^5 cells/mL on eight chamber glass slides (BD Biosciences, 2350 Qume Dr, San Jose, CA, USA). Cells were either untreated or treated with vehicle [1% ethanol (v/v)], paclitaxel (1 μM), combretastatin A-4 (100 nM) or compound 7s (100 nM) for 16 h. Following treatment cells were gently washed in PBS, fixed for 20 min with 4% paraformaldehyde in PBS and permeabilised in 0.5% Triton X-100. Following washes in PBS containing 0.1% Tween (PBST), cells were blocked in 5% bovine serum albumin diluted in PBST. Cells were then incubated with mouse monoclonal anti-α-tubulin−FITC antibody (clone DM1A) (Sigma-Aldrich, 2033 Westport Center Dr, St. Louis, MO, USA) (1:100) for 2 h at room temperature. Following washes in PBST, cells were incubated with Alexa Fluor 488 dye (1:450) for 1 h at room temperature. Following washes in PBST, the cells were mounted in Ultra Cruz Mounting Media (Santa Cruz Biotechnology Inc., 10410 Finnell Street, Dallas, TX, USA) containing 4,6-diamino-2-phenolindol dihydrochloride (DAPI). Images were captured by Leica SP8 confocal microscopy with Leica application suite X software (Leica Microsystems CMS GmbH Am Friedensplatz 3 D-68165 Mannheim, Germany). All images in each experiment were collected on the same day using identical parameters. Experiments were performed on three independent occasions.

[3] = system: colchicine-binding site of tubulin; assay: Colchicine-binding site assay (EBI cross-linking, Western blot) in MCF-7 cells; assay type: cell-based, human; details: 10 μM for 2 h, then EBI 100 μM for 1.5 h
Experimental: MCF-7 cells were seeded at a density of 5 × 10^4 cells/well in 6-well plates and incubated overnight. Cells were treated with vehicle control [ethanol (0.1% v/v)] or compound 7s (10 μM) for 2 h. After this time, selected wells were treated with N,N′-ethylene-bis(iodoacetamide)(EBI) (100 μM) (Santa Cruz Biotechnology Inc. 10410 Finnell Street, Dallas, Texas, USA) for 1.5 h. Following treatment, cells were twice washed with ice-cold PBS and lysed by addition of Laemmli buffer. Samples were separated by SDS-PAGE, trasnsferred to polyvinylidene difluoride membranes and probed with β-tubulin antibodies (Sigma-Aldrich, 2033 Westport Center Dr, St. Louis, MO, USA).

NCI-H460 = assay: NCI60 screen (SRB), Non-Small Cell Lung Cancer; assay type: cell-based; details: Homo sapiens
NCI-H552 = assay: NCI60 screen (SRB), Non-Small Cell Lung Cancer; assay type: cell-based
EKVX = assay: NCI60 screen (SRB), Non-Small Cell Lung Cancer; assay type: cell-based; details: Homo sapiens
HEK-293T cells = assay: Cytotoxicity in non-tumourigenic HEK-293T cells; assay type: cell-based, human
HOP-92 = assay: NCI60 screen (SRB), Non-Small Cell Lung Cancer; assay type: cell-based; details: Homo sapiens
[4] = Whole blood stability study; assay type: in vitro ADME; details: 37 °C

For `COc1ccc(/C=C\c2cc(OC)c(OC)c(OC)c2)cc1O` [CA-4, Combretastatin A-4, reference compound], the IC50 (Hs578Ts(i)8 cells; invasive Hs578Ts(i)8 cells, read-out: IC50) was 20 nM, the “cells in G2M arrest” value (MCF-7 cells; 100 nM, 48 h) was 52% and the sub-G0G1 population (MCF-7 cells; 100 nM, 48 h) was 9.4%. For the same molecule, the IC50 ([1]; triple-negative Hs578T cells, read-out: IC50) was 8 nM, the “effect on microtubule network” value [2] was “complete loss of microtubule formation” and the β-tubulin-EBI adduct formation [3] was “EBI adduct formation is inhibited”.

For `C=CC1C(=O)N(c2cc(OC)c(OC)c(OC)c2)C1c1ccc(OC)cc1` (stereo not drawn) [Compound 7h, 4-(4-Methoxyphenyl)-1-(3,4,5-trimethoxyphenyl)-3-vinylazetidin-2-one], the GI50 (NCI-H460) was 36 nM, the IC50 (Hs578Ts(i)8 cells) was 76 nM and the IC50 [1] was 31 nM. For the same molecule, the GI50 (NCI-H552) was 20.6 nM and the GI50 (EKVX) was 58.3 nM.

With `C=CC1C(=O)N(c2cc(OC)c(OC)c(OC)c2)C1c1ccc(OC)c(O)c1` (stereo not drawn) [Compound 7s, 4-[3-Hydroxy-4-methoxyphenyl]-1-(3,4,5-trimethoxyphenyl)-3-vinylazetidin-2-one] the “cells in G2M arrest” value (MCF-7 cells; 10 nM, 24 h) was 64%, the “apoptotic cells (sub-G0G1)” value (MCF-7 cells; 10 nM) was 14% and the “cells in G2M arrest” value (MCF-7 cells; 100 nM, 24 h) was 82%. For the same molecule, the “apoptotic cells (sub-G0G1)” value (MCF-7 cells; 100 nM) was 26%, the “effect on microtubule network” value [2] was “complete loss of microtubule formation” and the β-tubulin-EBI adduct formation [3] was “EBI adduct formation is inhibited”. The “cytotoxicity against non-tumorigenic HEK-293T cells” value (HEK-293T cells) was “minimal cytotoxicity” and the IC50 (HEK-293T cells; Homo sapiens, non-tumourigenic HEK-293T cells) was > 5000 nM.

In the case of `C=CC1C(=O)N(c2cc(OC)c(OC)c(OC)c2)C1c1ccc(OC)c(N)c1` (stereo not drawn) [Compound 7t, 4-(3-Amino-4-methoxyphenyl)-1-(3,4,5-trimethoxyphenyl)-3-vinylazetidin-2-one], the GI50 (NCI-H460) is reported as 35.5 nM, the GI50 (HOP-92) is reported as 39.3 nM and the GI50 (NCI-H552) is reported as < 10 nM.

With `C=CC1C(=O)N(c2cc(OC)c(OC)c(OC)c2)C1c1ccc(OC)c(OP(=O)(O)O)c1` (stereo not drawn) [Compound 17b, 2-Methoxy-5-(1-(3,4,5-trimethoxyphenyl)-4-oxo-3-vinylazetidin-2-yl)phenyl dihydrogen phosphate] the “remaining after 6 h” value [4] was 62%.

With `CCC1C(=O)N(c2cc(OC)c(OC)c(OC)c2)C1c1ccc(OC)c(OP(=O)(O)O)c1` (stereo not drawn) [Compound 17c, 5-(3-Ethyl-1-(3,4,5-trimethoxyphenyl)-4-oxoazetidin-2-yl)-2-methoxyphenyl dihydrogen phosphate] the “remaining after 6 h” value [4] was 34%.
